Source: patent US10800815B2, “Kv1.3 potassium channel antagonists” (cgtx-Peptide Development GmbH, priority 2014, dated 2020)

Legend:
Kv1.2 = biological target: T1, Kv1.2 (Homo sapiens, UniProt P16389); experiment: Patchliner electrophysiology on Kv1.2 in stably transfected CHO cells (Example 8); type: cell-based
T1 construct: expressed in transfected cells; host or cells: CHO cells, stably transfected
Procedure: (§1) Ion channels were expressed via Baculovirus (Kv1.1-, Kv1.3- and Kv1.5-constructs) infected Sf21 cells or stably transfected CHO cells (Kv1.2) as described in Examples 1, 2, and 4. Electrophysiological analysis was performed on the automated patch clamp device “Patchliner” (Nanion Technologies, Munich, Germany). The Patchliner is based on a planary patch clamp method borosilicate glass chip (NPC-16) instead of a glass pipettes. The Patchliner is able to record four cells at the same time. All channel recordings were made in the whole cell mode. Data recordings were performed with the PatchMaster software (HEKA Electronics, Lambrecht/Pfalz, Germany). Visualization of experimental results was realized with IGOR software (Wavemetrics, USA). Average data are presented as mean±standard error of the mean (SEM).
(§2) Test compounds were used as concentrated stock solutions (mostly 1.5 μg/μl). Stock solutions were diluted in buffer to the required final concentrations.

Kv1.5 = biological target: T2, Kv1.5 (Homo sapiens, UniProt P22460); experiment: Patchliner electrophysiology on Kv1.5 in Baculovirus infected Sf21 cells (Example 8); type: cell-based; conditions: 10 μM solution
T2 construct: expressed in transfected cells; host or cells: Sf21 insect cells, baculovirus infection
T2 sequence (P22460 whole entry): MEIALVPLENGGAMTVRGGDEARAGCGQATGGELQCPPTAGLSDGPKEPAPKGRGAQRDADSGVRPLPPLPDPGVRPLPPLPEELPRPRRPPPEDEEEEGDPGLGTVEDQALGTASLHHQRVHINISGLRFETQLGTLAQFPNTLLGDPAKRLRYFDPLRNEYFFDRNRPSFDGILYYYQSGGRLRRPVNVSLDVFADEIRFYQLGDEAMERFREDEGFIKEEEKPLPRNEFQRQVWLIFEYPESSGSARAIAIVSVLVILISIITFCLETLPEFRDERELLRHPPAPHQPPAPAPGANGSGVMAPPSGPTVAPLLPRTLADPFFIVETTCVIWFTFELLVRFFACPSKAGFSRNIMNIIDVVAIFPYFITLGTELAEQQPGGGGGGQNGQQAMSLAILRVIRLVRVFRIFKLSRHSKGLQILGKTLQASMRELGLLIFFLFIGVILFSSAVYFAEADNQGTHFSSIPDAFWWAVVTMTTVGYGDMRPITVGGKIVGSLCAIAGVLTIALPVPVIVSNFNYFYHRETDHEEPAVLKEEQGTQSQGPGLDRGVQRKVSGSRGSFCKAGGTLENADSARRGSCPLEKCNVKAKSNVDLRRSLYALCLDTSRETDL

Kv1.3 [1] = biological target: T3, Kv1.3 (Homo sapiens, UniProt P22001); experiment: Kv1.3 block with prolonged incubation times; type: cell-based; conditions: incubation about 20 min, after folding and purification
T3 sequence (P22001 whole entry): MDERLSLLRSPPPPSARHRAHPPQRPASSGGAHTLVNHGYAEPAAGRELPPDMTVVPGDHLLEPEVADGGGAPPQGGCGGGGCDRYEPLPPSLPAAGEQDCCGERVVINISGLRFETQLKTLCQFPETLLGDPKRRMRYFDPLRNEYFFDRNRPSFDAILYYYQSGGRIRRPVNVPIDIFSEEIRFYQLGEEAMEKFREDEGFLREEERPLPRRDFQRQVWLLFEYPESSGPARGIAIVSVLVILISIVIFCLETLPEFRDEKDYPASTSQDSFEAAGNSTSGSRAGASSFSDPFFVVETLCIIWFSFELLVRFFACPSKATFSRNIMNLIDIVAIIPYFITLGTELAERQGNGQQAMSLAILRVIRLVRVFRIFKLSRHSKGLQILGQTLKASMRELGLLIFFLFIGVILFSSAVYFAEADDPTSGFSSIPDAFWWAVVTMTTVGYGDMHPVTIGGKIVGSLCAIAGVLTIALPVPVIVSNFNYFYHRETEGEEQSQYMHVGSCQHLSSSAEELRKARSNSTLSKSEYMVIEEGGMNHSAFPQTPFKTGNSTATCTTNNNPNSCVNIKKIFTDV

Kv1.3 [2] = biological target: T3, Kv1.3; experiment: Decay of cgtx-544(Sing) in human blood serum at 37° C., blocking activity on Kv1.3 (Example 9); type: in vitro ADME
Procedure: FIG. 33 Decay of cgtx-544(Sing) in human serum at 37° C. A known amount of cgtx-544(Sing) was added to human blood serum from 3 blood donors and incubated at 37° C. for a period of 57 days. The blocking activity of the peptide was measured on Kv1.3 channels over this period. The peptide remains stable for 16 h, and it can still be detected after 45 days. At 57 days the blocking effect is no longer visible. Decay is depicted as the reduction of concentration of cgtx-544 (Sing) as determined by: C(t)=IC50 (t0)/IC50(t).C0. The decay is fitted by a simple decay curve: C (t)=C0.2(−t/t1/2), where C0 is the initial concentration of peptide in solution, t0 is the 0 min incubation at 37° C. point, and t1/2 is the half-life.
Further to the experiments described in Example 3, the stability of the cgtx-544 peptide was tested in blood serum samples under in vitro conditions. Thus, the stability of cgtx-544(Sing) in human blood serum was determined by the addition of a known quantity of cgtx-544(Sing) to human blood serum and a subsequent incubation at 37° C. The blocking activity of ctx-544(Sing) was measured on Kv1.3 channels over a period of 57 days. cgtx-544(Sing) is extremely stable in human blood serum. Its activity remains constant for at least 16 hours, and decays slowly until no more peptide blocking effect is detectable after 57 days.

Kv1.1 = biological target: T4, Kv1.1 (Homo sapiens, UniProt Q09470); experiment: Patchliner electrophysiology on Kv1.1 in Baculovirus infected Sf21 cells (Example 8); type: cell-based
T4 construct: expressed in transfected cells; host or cells: Sf21 insect cells, baculovirus infection
T4 sequence (Q09470 whole entry): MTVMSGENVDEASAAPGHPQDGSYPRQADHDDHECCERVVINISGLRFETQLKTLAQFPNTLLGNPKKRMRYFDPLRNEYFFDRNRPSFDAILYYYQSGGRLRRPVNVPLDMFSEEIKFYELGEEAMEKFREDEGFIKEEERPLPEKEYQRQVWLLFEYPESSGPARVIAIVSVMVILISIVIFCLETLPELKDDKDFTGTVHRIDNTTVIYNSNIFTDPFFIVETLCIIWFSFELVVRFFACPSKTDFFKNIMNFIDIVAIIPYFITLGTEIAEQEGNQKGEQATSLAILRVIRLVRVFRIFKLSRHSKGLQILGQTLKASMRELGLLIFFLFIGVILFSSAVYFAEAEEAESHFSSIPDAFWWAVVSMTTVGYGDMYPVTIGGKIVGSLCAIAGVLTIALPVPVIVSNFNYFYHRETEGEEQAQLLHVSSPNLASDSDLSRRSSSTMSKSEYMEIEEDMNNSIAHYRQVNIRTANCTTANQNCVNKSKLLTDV
Procedure: as §1, §2

Kv1.3 [3] = biological target: T3, Kv1.3; experiment: Patchliner electrophysiology of cgtx-544(Sing) on Kv1.3 in Baculovirus infected Sf21 cells (Example 8); type: cell-based
Procedure: as §1, §2
After chemical synthesis (see Example 7) the peptide was folded by oxidation with atmospheric oxygen and the correctly folded (biologically active) peptide fraction was purified by preparative HPLC. This purified cgtx-544 peptide was designated cgtx-544(Sing) for singular peak.

[4] = Solubility and stability in 0.9% NaCl solution; type: physicochemical
Procedure: This peptide solution is being folded by oxidation (formation of disulfide bonds). The folding method is based on bond formation in phosphate buffer at pH 8.3 in the presence of atmospheric oxygen. […] Thus, after the folding reaction the active peptide (retention time 12.77 min) was purified from the cgtx-544 mixture of folded and partially folded peptides by preparative HPLC. After this purification step the active peptide—referred to as cgtx-544(Sing)—usually has an estimated purity of more than 95%.

in vivo = type: in vivo; conditions: rat
Procedure: FIG. 34 Decrease of cgtx-544(Sing) in the serum of treated rats after i.v. injection. The concentration of unbound circulating cgtx-544(Sing) was calculated on the basis of a standard curve. Standard error of the mean is depicted in the error bars (n=6).
Rats received i.v. injections of cgtx-544(Sing) (750 μg/kg BW). Blood was withdrawn at time points 0, 1, 10 and 60 minutes. Subsequently, serum was prepared from blood samples. The cgtx-544 content in these samples was analyzed electrophysiologically by measuring the blocking effect on Kv1.3 channels expressed in CHO cells. […] In order to study the amount of unbound cgtx-544(Sing) in the rat, the amount of cgtx-544(Sing) present in the circulating blood at the time points referred above was calculated through a calibration curve. This calibration curve was obtained by adding known quantities of cgtx-544(Sing) to blood serum and subsequent electrophysiological measurements on Kv1.3 channels. The block of Kv1.3 currents by these spiked samples was similar to that obtained with cgtx-544(Sing) in the absence of serum (data not shown).

[5] = test system: antigen induced arthritis (AIA); experiment: Antigen induced arthritis (AIA) rat model, knee joint swelling; type: in vivo; conditions: for reduction of knee swelling relative to the vehicle control group: 24 h after arthritis induction; for difference of absolute increase of knee swelling (induced minus un-induced knee): one day after arthritis induction
[6] = test system: white blood cells in peripheral blood; experiment: Haematology (WBC, neutrophil granulocytes, lymphocytes) in AIA rats; type: in vivo, rat
Procedure: For the blood withdrawal the animals were narcotized briefly, the tail was disinfected and the tail vein was punctured with a cannula, 50 μl of blood were withdrawn with a heparin coated pipette and mixed with 5 μl of a stabilising agent (CPD) and 1 μl heparin (1.5 U/μl diluted 1:4 in 0.9% NaCl).
White Blood Cells (WBC) were counted with a Coulter Counter in the automatic mode.
Blood samples were taken regularly for monitoring of hematological parameters. Haematological parameters were assessed in all animals weekly before induction, at day of induction and 10 days after induction (days −21, −14, −7, 0 and 10). […] Absolute counts of white blood cells (WBC), neutrophil granulocytes and lymphocytes were analyzed among others, the last two also stated in percentage of total WBC. EDTA whole blood of seven individuals from both vehicle and cgtx-544 peptide therapy group was measured with Sysmex XT-2000i.
For screening the state of health of all individuals, complete haemograms were used again. EDTA whole blood of seven individuals from both MTX high-dose and low-dose therapy groups were measured with Sysmex XT-2000i.V weekly before induction, at day of induction and 4 and 7 days after induction (day −21, −14, −7, 0, 4 and 7; MTX low-dose therapy group additionally on day −3, when i.v. application started).

[7] = high-dose 1 mg/kg 1× weekly s.c.
[8] = low-dose 100 μg/kg 1× daily i.v.
[9] = high-dose 1 mg/kg 1× weekly s.c., day 7
[10] = high-dose 1 mg/kg 1× weekly s.c., day −7
[11] = high-dose 1 mg/kg 1× weekly s.c., seven days after induction
[12] = low-dose 100 μg/kg 1× daily i.v., day 7

T1 sequence (P16389 whole entry): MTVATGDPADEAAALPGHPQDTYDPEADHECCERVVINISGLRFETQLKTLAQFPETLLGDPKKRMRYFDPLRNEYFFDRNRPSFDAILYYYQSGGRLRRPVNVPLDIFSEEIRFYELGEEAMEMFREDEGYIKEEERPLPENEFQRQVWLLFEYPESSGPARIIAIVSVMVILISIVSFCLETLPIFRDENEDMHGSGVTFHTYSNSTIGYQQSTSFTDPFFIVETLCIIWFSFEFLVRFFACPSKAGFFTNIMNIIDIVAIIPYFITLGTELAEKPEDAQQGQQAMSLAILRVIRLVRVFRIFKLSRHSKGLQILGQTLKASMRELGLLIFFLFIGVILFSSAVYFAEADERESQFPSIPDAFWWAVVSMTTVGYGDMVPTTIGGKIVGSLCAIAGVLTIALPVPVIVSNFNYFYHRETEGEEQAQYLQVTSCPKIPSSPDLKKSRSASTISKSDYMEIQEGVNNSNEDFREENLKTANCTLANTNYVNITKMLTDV

CC[C@H](C)[C@H](NC(=O)[C@@H](N)[C@@H](C)O)C(=O)N[C@H](C(=O)N[C@@H](CC(N)=O)C(=O)N[C@H](C(=O)N[C@@H](CCCCN)C(=O)N[C@H]1CSSC[C@@H]2NC(=O)[C@H](CCCCN)NC(=O)CNC(=O)[C@H](Cc3ccc(O)cc3)NC(=O)[C@@H]3CCCN3C(=O)[C@@H]3CSSC[C@@H](C(=O)O)NC(=O)[C@H](CCCNC(=N)N)NC(=O)[C@H](CC(N)=O)NC(=O)[C@@H]4CSSC[C@H](NC(=O)[C@@H]5CCCN5C(=O)[C@@H]5CCCN5C(=O)[C@H](CC(C)C)NC(=O)[C@H](CSSC[C@H](NC(=O)[C@H](CCCCN)NC(=O)[C@H](CCCNC(=N)N)NC(=O)[C@H](CC(N)=O)NC(=O)[C@H](CCSC)NC2=O)C(=O)N[C@@H](CCCCN)C(=O)N4)NC(=O)[C@H](CCC(N)=O)NC(=O)[C@H](CCCCN)NC(=O)[C@@H]2CCCN2C(=O)[C@H](CO)NC(=O)[C@H]([C@@H](C)O)NC1=O)C(=O)N[C@@H](CCCCN)C(=O)N[C@@H](C)C(=O)N[C@@H](CCC(N)=O)C(=O)N[C@@H]([C@@H](C)O)C(=O)NCC(=O)N3)C(C)C)[C@@H](C)CC [cgtx-544(Sing)]
IC50 (Kv1.2): 2.5 µM | effect on Kv1.2 currents (Kv1.2; 100 nM solution, stably transfected CHO cells): did not alter | effect on Kv1.2 currents (Kv1.2; concentrations >1 μM): only slightly reduced currents | reduction of Kv1.5 currents (Kv1.5): did not induce a significant reduction | IC50 (Kv1.3 [1]): ~0.0009 µM | time after which the peptide can still be detected (Kv1.3 [2]; human blood serum, 37° C.): 45 days | time at which blocking effect is no longer visible (Kv1.3 [2]; human blood serum, 37° C.): 57 days | period for which 50% activity was retained (Kv1.3 [2]; human serum at 37° C.): 5 days | IC50 (Kv1.1): ~6 µM | IC50 (Kv1.3 [3]): 0.0069 µM | solubility ([4]; 0.9% NaCl solution): highly soluble | stability in solution ([4]; 0.9% NaCl solution at RT and 4° C.): up to several weeks | half-life (in vivo; in vivo, iv, 750 ug/kg, 750 μg/kg BW): ~26 min | blocking activity of serum sample relative to the 1 minute sample (in vivo; 750 μg/kg BW i.v., 60 minutes): 10% | approximate concentration in the circulating blood (in vivo; i.v., 750 μg/kg BW): ~62 nM

CN(Cc1cnc2nc(N)nc(N)c2n1)c1ccc(C(=O)N[C@@H](CCC(=O)O)C(=O)O)cc1 [MTX, Methotrexate]
relative difference of knee swelling (normalized) [5, 7]: 0.39±0.16 | reduction of knee swelling relative to the vehicle control group [5, 7]: 15% | difference of absolute increase of knee swelling (induced minus un-induced knee) [5, 7]: 3.17±1.26 mm | relative difference of knee swelling (normalized) [5, 8]: 0.43±0.11 | reduction of knee swelling relative to the vehicle control group [5, 8]: 7% | difference of absolute increase of knee swelling (induced minus un-induced knee) [5, 8]: 3.45±0.87 mm | WBC count [6, 9]: 14.68±2.15 ×10^3/μl | absolute lymphocyte count [6, 9]: 11.38±1.15 ×10^3/μl | lymphocyte percentage [6, 9]: 78.16±7.20 % of WBC | WBC count [6, 10]: 20.79±5.96 ×10^3/μl | absolute lymphocyte count [6, 10]: 11.68±2.8 ×10^3/μl | absolute neutrophil granulocyte count [6, 10]: 7.54±3.19 ×10^3/μl | lymphocyte percentage [6, 10]: 57.01±6.45 % of WBC | relative neutrophils [6, 10]: 35.46±7.08 % of WBC | absolute neutrophil granulocyte count [6, 11]: 1.94±1.1 ×10^3/μl | relative neutrophils [6, 11]: 12.63±6.1 % of WBC | WBC count [6, 12]: 6.63±1.37 ×10^3/μl | absolute lymphocyte count [6, 12]: 6.14±1.11 ×10^3/μl | absolute neutrophil granulocyte count [6, 12]: 0.33±0.36 ×10^3/μl | decrease of WBC counts compared to the beginning of the experiment [6, 12]: ~50% | lymphocyte percentage [6, 12]: 93.13±4.66 % of WBC | relative neutrophils [6, 12]: 4.41±4.63 % of WBC | effect in the haemogram compared to the vehicle control group ([6]; low-dose treated individuals, seven days after arthritis induction): reduction of WBC count, neutrophil granulocyte count and lymphocyte count
